{"source": "patent US7304093B2", "about": "“Ketone compounds and compositions for cholesterol management and related uses” (Esperion Therapeutics, Inc., priority 2000, dated 2007)", "system": "female obese Zucker rats", "experiment": "Serum lipid and glycemic control variables in chow-fed obese female Zucker rats, daily oral gavage for two weeks", "format": "in vivo, rat", "details": "for change in vivo at 100 mg/kg: Rattus norvegicus, Table 9; for Glucose / HDL-C / NEFA / Non-HDL-C / TG / Insulin: serum, mean ± SEM; for Insulin: Tables 10, 11", "summary_of_the_method": "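Female obese Zucker fa rats, 10–12 wk, 400–500 g, chow-fed, dosed daily by oral gavage for 14 days in CMC/Tween 20 or ethanol/PEG-200 vehicle. After a 6-h fast, serum was sampled pre-dose, day 7 and day 14. Triglycerides, total cholesterol, NEFA and β-hydroxybutyrate were measured, plus lipoprotein cholesterol by gel-filtration profiling.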", "note": "Where two headings read alike, the source gives them in different places. Marks after values point to notes of the source that are not given here.", "data": [{"molecule": "CC(C)(CO)CCCCC(=O)CCCCC(C)(C)CO", "note": "[Compound 214c, 1,13-Dihydroxy-2,2,12,12-tetramethyltridecan-7-one]", "values": [{"measurement": "HDL-C, percent increase (+) or decrease (−) of the pretreatment control value", "setting": "3 mg/kg daily oral, 1 wk", "value": "(−10) percent"}, {"measurement": "HDL-C, percent increase (+) or decrease (−) of the pretreatment control value", "setting": "3 mg/kg daily oral, 2 wk", "value": "(−19) percent"}, {"measurement": "NEFA, percent increase (+) or decrease (−) of the pretreatment control value", "setting": "3 mg/kg daily oral, 2 wk", "value": "(+145) percent"}, {"measurement": "HDL-C, percent increase (+) or decrease (−) of the pretreatment control value", "setting": "10 mg/kg daily oral, 1 wk", "value": "(+113) percent"}, {"measurement": "NEFA, percent increase (+) or decrease (−) of the pretreatment control value", "setting": "10 mg/kg daily oral, 1 wk", "value": "(−18) percent"}, {"measurement": "TG, percent increase (+) or decrease (−) of the pretreatment control value", "setting": "10 mg/kg daily oral, 1 wk", "value": "(−23) percent"}, {"measurement": "HDL-C, percent increase (+) or decrease (−) of the pretreatment control value", "setting": "10 mg/kg daily oral, 2 wk", "value": "(+115) percent"}, {"measurement": "HDL-C, percent increase (+) or decrease (−) of the pretreatment control value", "setting": "30 mg/kg daily oral, 1 wk", "value": "(+140) percent"}, {"measurement": "NEFA, percent increase (+) or decrease (−) of the pretreatment control value", "setting": "30 mg/kg daily oral, 1 wk", "value": "(−21) percent"}, {"measurement": "TG, percent increase (+) or decrease (−) of the pretreatment control value", "setting": "30 mg/kg daily oral, 1 wk", "value": "(−27) percent"}, {"measurement": "HDL-C, percent increase (+) or decrease (−) of the pretreatment control value", "setting": "30 mg/kg daily oral, 2 wk", "value": "(+142) percent"}, {"measurement": "Non-HDL-C, percent increase (+) or decrease (−) of the pretreatment control value", "setting": "30 mg/kg daily oral, 2 wk", "value": "(+127) percent"}, {"measurement": "HDL-C, percent increase (+) or decrease (−) of the pretreatment control value", "setting": "100 mg/kg daily oral, 1 wk", "value": "(+173) percent"}, {"measurement": "NEFA, percent increase (+) or decrease (−) of the pretreatment control value", "setting": "100 mg/kg daily oral, 1 wk", "value": "(−30) percent"}, {"measurement": "TG, percent increase (+) or decrease (−) of the pretreatment control value", "setting": "100 mg/kg daily oral, 1 wk", "value": "(−54) percent"}, {"measurement": "HDL-C, percent increase (+) or decrease (−) of the pretreatment control value", "setting": "100 mg/kg daily oral, 2 wk", "value": "(+176) percent"}, {"measurement": "NEFA, percent increase (+) or decrease (−) of the pretreatment control value", "setting": "100 mg/kg daily oral, 2 wk", "value": "(−33) percent"}, {"measurement": "TG, percent increase (+) or decrease (−) of the pretreatment control value", "setting": "100 mg/kg daily oral, 2 wk", "value": "(−33) percent"}, {"measurement": "change in vivo at 100 mg/kg", "setting": "168 h, 100 mg/kg daily oral, 1 wk, read-out: HDL-Cholesterol, Percent Change from Pre-Treatment", "value": 110, "unit": "%"}, {"measurement": "change in vivo at 100 mg/kg", "setting": "168 h, 100 mg/kg daily oral, 1 wk, read-out: NonHDL-Cholesterol, Percent Change from Pre-Treatment", "value": -23, "unit": "%"}, {"measurement": "change in vivo at 100 mg/kg", "setting": "168 h, 100 mg/kg daily oral, 1 wk, read-out: TG, Percent Change from Pre-Treatment", "value": -54, "unit": "%"}, {"measurement": "change in vivo at 100 mg/kg", "setting": "336 h, 100 mg/kg daily oral, 2 wk, read-out: HDL-Cholesterol, Percent Change from Pre-Treatment", "value": 126, "unit": "%"}, {"measurement": "change in vivo at 100 mg/kg", "setting": "336 h, 100 mg/kg daily oral, 2 wk, read-out: NonHDL-Cholesterol, Percent Change from Pre-Treatment", "value": -10, "unit": "%"}, {"measurement": "change in vivo at 100 mg/kg", "setting": "336 h, 100 mg/kg daily oral, 2 wk, read-out: TG, Percent Change from Pre-Treatment", "value": -29, "unit": "%"}, {"measurement": "Glucose", "setting": "3 mg/kg daily oral, 1 wk", "value": "106 ± 2", "unit": "mg/dL"}, {"measurement": "HDL-C", "setting": "3 mg/kg daily oral, 1 wk", "value": "43 ± 4^a mg/dl"}, {"measurement": "NEFA", "setting": "3 mg/kg daily oral, 1 wk", "value": "1.2 ± 0.05", "unit": "mg/dL"}, {"measurement": "Non-HDL-C", "setting": "3 mg/kg daily oral, 1 wk", "value": "25 ± 3", "unit": "mg/dL"}, {"measurement": "TG", "setting": "3 mg/kg daily oral, 1 wk", "value": "800 ± 75", "unit": "mg/dL"}, {"measurement": "Insulin", "setting": "3 mg/kg daily oral, 1 wk", "value": "7.5 ± 0.8", "unit": "ng/mL"}, {"measurement": "Glucose", "setting": "3 mg/kg daily oral, 2 wk", "value": "103 ± 3", "unit": "mg/dL"}, {"measurement": "HDL-C", "setting": "3 mg/kg daily oral, 2 wk", "value": "39 ± 4^a mg/dl"}, {"measurement": "NEFA", "setting": "3 mg/kg daily oral, 2 wk", "value": "1.6 ± 0.13"}, {"measurement": "Non-HDL-C", "setting": "3 mg/kg daily oral, 2 wk", "value": "22 ± 2", "unit": "mg/dL"}, {"measurement": "TG", "setting": "3 mg/kg daily oral, 2 wk", "value": "781 ± 65", "unit": "mg/dL"}, {"measurement": "Insulin", "setting": "3 mg/kg daily oral, 2 wk", "value": "7.8 ± 0.6", "unit": "ng/mL"}, {"measurement": "Glucose", "setting": "10 mg/kg daily oral, 1 wk", "value": "110 ± 2", "unit": "mg/dL"}, {"measurement": "HDL-C", "setting": "10 mg/kg daily oral, 1 wk", "value": "52 ± 3^a mg/dl"}, {"measurement": "NEFA", "setting": "10 mg/kg daily oral, 1 wk", "value": "0.98 ± 0.08"}, {"measurement": "Non-HDL-C", "setting": "10 mg/kg daily oral, 1 wk", "value": "21 ± 2", "unit": "mg/dL"}, {"measurement": "TG", "setting": "10 mg/kg daily oral, 1 wk", "value": "602 ± 37^a mg/dl"}, {"measurement": "Insulin", "setting": "10 mg/kg daily oral, 1 wk", "value": "7.5 ± 0.4", "unit": "ng/mL"}, {"measurement": "Glucose", "setting": "10 mg/kg daily oral, 2 wk", "value": "110 ± 3", "unit": "mg/dL"}, {"measurement": "HDL-C", "setting": "10 mg/kg daily oral, 2 wk", "value": "53 ± 4^a mg/dl"}, {"measurement": "NEFA", "setting": "10 mg/kg daily oral, 2 wk", "value": "1.0 ± 0.10", "unit": "mg/dL"}, {"measurement": "Non-HDL-C", "setting": "10 mg/kg daily oral, 2 wk", "value": "25 ± 2", "unit": "mg/dL"}, {"measurement": "TG", "setting": "10 mg/kg daily oral, 2 wk", "value": "730 ± 52", "unit": "mg/dL"}, {"measurement": "Insulin", "setting": "10 mg/kg daily oral, 2 wk", "value": "7.8 ± 0.5", "unit": "ng/mL"}, {"measurement": "Glucose", "setting": "30 mg/kg daily oral, 1 wk", "value": "112 ± 13", "unit": "mg/dL"}, {"measurement": "HDL-C", "setting": "30 mg/kg daily oral, 1 wk", "value": "60 ± 3^a mg/dl"}, {"measurement": "NEFA", "setting": "30 mg/kg daily oral, 1 wk", "value": "1.1 ± 0.05"}, {"measurement": "Non-HDL-C", "setting": "30 mg/kg daily oral, 1 wk", "value": "28 ± 2", "unit": "mg/dL"}, {"measurement": "TG", "setting": "30 mg/kg daily oral, 1 wk", "value": "726 ± 49^a mg/dl"}, {"measurement": "Insulin", "setting": "30 mg/kg daily oral, 1 wk", "value": "0.091 ± 0.006", "unit": "ng/mL"}, {"measurement": "Glucose", "setting": "30 mg/kg daily oral, 2 wk", "value": "120 ± 3", "unit": "mg/dL"}, {"measurement": "HDL-C", "setting": "30 mg/kg daily oral, 2 wk", "value": "61 ± 4^a mg/dl"}, {"measurement": "NEFA", "setting": "30 mg/kg daily oral, 2 wk", "value": "1.2 ± 0.10", "unit": "mg/dL"}, {"measurement": "Non-HDL-C", "setting": "30 mg/kg daily oral, 2 wk", "value": "38 ± 5^a mg/dl"}, {"measurement": "TG", "setting": "30 mg/kg daily oral, 2 wk", "value": "985 ± 110", "unit": "mg/dL"}, {"measurement": "Insulin", "setting": "30 mg/kg daily oral, 2 wk", "value": "0.098 ± 0.007", "unit": "ng/mL"}, {"measurement": "Glucose", "setting": "100 mg/kg daily oral, 1 wk", "value": "120 ± 5", "unit": "mg/dL"}, {"measurement": "HDL-C", "setting": "100 mg/kg daily oral, 1 wk", "value": "78 ± 5^a mg/dl"}, {"measurement": "NEFA", "setting": "100 mg/kg daily oral, 1 wk", "value": "0.98 ± 0.04"}, {"measurement": "Non-HDL-C", "setting": "100 mg/kg daily oral, 1 wk", "value": "23 ± 1", "unit": "mg/dL"}, {"measurement": "TG", "setting": "100 mg/kg daily oral, 1 wk", "value": "485 ± 29^a mg/dl"}, {"measurement": "Insulin", "setting": "100 mg/kg daily oral, 1 wk", "value": "0.109 ± 0.01", "unit": "ng/mL"}, {"measurement": "Glucose", "setting": "100 mg/kg daily oral, 2 wk", "value": "118 ± 3", "unit": "mg/dL"}, {"measurement": "HDL-C", "setting": "100 mg/kg daily oral, 2 wk", "value": "79 ± 6^a mg/dl"}, {"measurement": "NEFA", "setting": "100 mg/kg daily oral, 2 wk", "value": "0.94 ± 0.04"}, {"measurement": "Non-HDL-C", "setting": "100 mg/kg daily oral, 2 wk", "value": "32 ± 2", "unit": "mg/dL"}, {"measurement": "TG", "setting": "100 mg/kg daily oral, 2 wk", "value": "702 ± 53^a mg/dl"}, {"measurement": "Insulin", "setting": "100 mg/kg daily oral, 2 wk", "value": "0.11 ± 0.009", "unit": "ng/mL"}]}]}
